Experimental data reported in patent publication US20230313199A1, “TARGET FOR MODULATING BODY MASS” (Massachusetts Institute of Technology, priority 2020, published 2023).

Experiments:
[1] = target: T1, Mutant NTD (all five histidine residues in the HP repeats mutated to alanine) (Homo sapiens, UniProt Q9UPI3, H30A/H36A/H48A/H54A/H66A); assay: Heme absorbance-shift assay with mutant NTD; format: binding
T1 construct: Plasmid harboring GST-His-tag-SUMO-NTD (amino acids 1-84); GST-His-tag-SUMO (N, cleaved yes); made in house; host or cells: Escherichia coli

NTD of human MFSD7C [2] = target: T2, NTD of human MFSD7C (Homo sapiens, UniProt Q9UPI3); assay: Isothermal titration calorimetry of NTD binding to heme
T2 construct: Plasmid harboring GST-His-tag-SUMO-NTD (amino acids 1-84); GST-His-tag-SUMO (N, cleaved yes); made in house; host or cells: Escherichia coli Lemo21(DE3)
T2 sequence (Q9UPI3 1-84): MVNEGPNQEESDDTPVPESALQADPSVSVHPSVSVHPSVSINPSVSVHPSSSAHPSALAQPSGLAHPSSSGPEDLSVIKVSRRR

MCF7 cells = assay: Thermogenesis by FPT, parental MCF7 cells; format: cell-based, human; details: heme for 1 hour
Description: Shown are representative graphs of OCR output of the indicated cells with or without hematin treatment and their responses to oligomycin, FCCP, and rotenone plus antimycin A (FIG. 12B), basal OCR (FIG. 12C), maximal OCR (FIG. 12D), and ECAR (FIG. 12E) from two separate experiments with n=10 biologically independent samples. Data are presented as mean value±standard deviation. Each dot represents one technical replicate. […] Parental and knockout cells were incubated with no probe or FPT for 6 hours, and then washed twice. A portion of FPT-treated cells was treated with heme for 1 hour. FPT fluorescence intensity was quantified by flow cytometry. Shown are representative plots from two separate experiments. P-values were calculated using two-way ANOVA (***p<0.001).
In the second approach, we used fluorescent polymeric thermometer (FPT), which we synthesized in-house (see above). Parental and knockout THP-1 cells were mixed together, washed and incubated with FPT in 5% w/v glucose solution for 6 hrs. The cells were washed with PBS twice and reseeded in dishes with glass bottom that was coated with poly-lysine. The cells were imaged under Confocal Laser-Scanning Microscopy at 37° C. […] Then the fluorescence intensities were determined by a flow cytometer.

NTD of human MFSD7C [3] = target: T2, NTD of human MFSD7C; assay: Gel-filtration assay of NTD and heme; format: binding; details: Superdex 75; absorbance 380 nm, 415 nm and 230 nm
Description: Gel-filtration assay. Purified NTD (200 μM) was incubated with freshly prepared heme (150 μM) in a 1 mL reaction containing 5% DMSO, 25 mM HEPES-NaOH pH 7.8, and 10 mM NaCl. The solution was run over Superdex 75 (24 mL) gel-filtration column at 0.3 mL/min rate using AKTA-FPLC. Absorbance was monitored at 230, 380, and 415 nm. 2 mL injection volume was subtracted from the final elution volume. Solution containing dissolved hemin in the reaction buffer without the NTD protein aggregated on top of the Superdex 75 column, thus this control was avoided in our experiments.

NTD of human MFSD7C [4] = target: T2, NTD of human MFSD7C; assay: Heme absorbance-shift assay with wild-type NTD; format: binding
Description: Heme absorbance-shift assay. Hemin was prepared fresh before each experiment. Approximately 20 mg of hemin (Sigma) was placed in a fresh tube and resuspended with 1 mL of DMSO. The hemin solution was slowly diluted while mixing with 1 mL of 2× buffer C (25 mM HEPES-NaOH pH 7.8, 10 mM NaCl), and aggregated hemin was eliminated by passing the solution through a 0.2 μm filter unit. Hemin concentration was determined by diluting the filtered solution with 1× buffer C 1:100 and using the extinction coefficient of 58,400 cm^−1M^−1 at 385 nm. For each reaction, the 200 μL reaction mix containing 100 μM hemin, 25 mM HEPES-NaOH pH 7.8, 10 mM NaCl, and various concentrations of wild-type or mutant NTD protein, was placed in a transparent 96-well plate. Absorbance intensity was measured using Tecan Infinite M200 Pro microplate reader, between 330 and 550 nm using 5 nm steps. The absorbance intensity for dissolved hemin was subtracted from absorbance intensity from hemin incubated with various concentrations of protein.

THP-1 cells [5] = assay: Oxygen consumption rate (Seahorse XF96e), parental THP-1 cells; format: cell-based, human; details: 40 μM heme for one hour vs vehicle
Description: Measurements of OCR, ECAR, and MMP. Oxygen consumption rate (OCR) and extracellular acidification rate (ECAR) were measured using XF96e Seahorse Extracellular Flux Analyzer per manufacturer's protocol. To increase adherence of suspension cells, Seahorse plates were coated with Corning® Cell TAK (Catalog No. 354240). THP-1 and 7CKO cells were then attached to the plate according to the manufacturer's instructions. Cells were incubated in complete RPMI media with or without 40 μM heme. Changes in oxygen consumption were measured following treatment with oligomycin (5 μM), FCCP (2 μM), and rotenone (1 μM) plus antimycin A (1 μM). For BMDM, 5×10^5 cells/well were plated in 100 μL of BMDM media, 24 hours before the start of the assay. For OCR measurements, BMDM media was replaced with 180 μL of Seahorse XF Base Medium supplemented with 10 mM D-glucose, 1 mM sodium pyruvate, and 1 mM L-glutamine. For ECAR measurements, BMDM media was replaced with 180 μL of Seahorse XF RPMI Medium pH 7.4 supplemented with 2 mM L-glutamine. The Glycolysis Stress Test was performed using D-glucose, rotenone/antimycin A, and 2-deoxy-D-glucose at 10 mM, 0.5 μM, and 50 mM final concentration, respectively.

THP-1 cells [6] = assay: Mitochondrial membrane potential by TMRE and flow cytometry; format: cell-based, human; details: heme 1 hour, reduced to similar levels as in 7CKO cells
Description: Mitochondrial membrane potential was measured using Abcam kit (Catalog No. ab113852). Briefly, BMDM, THP-1 and 7CKO cells were not treated or treated with […] for 1 hour. The cells were incubated with mitochondrial membrane potential indicator, 200 nM TMRE (tetramethylrhodamine, ethyl ester) for 20 minutes. The mean fluorescence intensity of TMRE were determined by flow cytometry.

T1 sequence (Q9UPI3 1-84 H30A/H36A/H48A/H54A/H66A): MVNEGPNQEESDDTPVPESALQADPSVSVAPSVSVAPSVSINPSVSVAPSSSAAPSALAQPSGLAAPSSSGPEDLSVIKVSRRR

C=CC1=C(C)c2cc3[n-]c(cc4[n-]c(cc5nc(cc1n2)C(C)=C5C=C)c(C)c4CCC(=O)O)c(CCC(=O)O)c3C.[Fe+2] [heme]
absorbance shift of heme [1]: abolished
heme molecules bound by the NTD (NTD of human MFSD7C [2]; ITC): three
heme molecules the NTD is capable of binding (NTD of human MFSD7C [2]; overall conclusion of Example 2): 2-3
FTP intensity (MCF7 cells): significantly stimulated
co-elution in gel-filtration chromatography (NTD of human MFSD7C [3]): co-eluted with the NTD
absorbance shift of heme (Soret band, Q band) (NTD of human MFSD7C [4]; 100 μM heme, various concentrations of wild-type NTD): concentration-dependent increase in the intensities of the Soret band (415 nm) and the Q band (535 nm)
heme binding sites per NTD from rate of increase of Soret band intensities (NTD of human MFSD7C [4]; 415 nm absorbance versus NTD concentration): two or more heme binding sites per NTD
basal OCR (THP-1 cells [5]): increased
maximal OCR (THP-1 cells [5]): increased
MMP (THP-1 cells [6]): reduced
